The source of these data is patent publication US8158621B2, “Methods of treating or preventing autoimmune diseases with 2,4-pyrimidinediamine compounds” (Rigel Pharmaceuticals, Inc., priority 2002, dated 2012).

Where only a bound is given, the exact number is not on record here.

The IC50 is the concentration needed to halve the response being measured. A low value points to higher potency.

For one assay, the system named is Human Jurkat T-cells (clone N). As to the kind of experiment: Jurkat T-cell activation (anti-TCR, CD69 upregulation).
Conditions: not given
The class given is cell-based. The gist of the method:
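Jurkat cells in RPMI + 5% FBS preincubated with compound 1 h at 37 °C, then stimulated with anti-TCR C305 at 500 ng/ml for 20 h. CD69 surface expression stained with anti-CD69-APC and read by flow cytometry; IC50 versus solvent-only control.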
Compound `CNC(=O)C(C)(Oc1cccc(Nc2ncc(F)c(Nc3ccc(OC(C)C)cc3)n2)c1)C(=O)NC` [Compound R935196] had an IC50 of 1.1 µM. The same measure, in the same setting: the value for `CC(C)Oc1ccc(Nc2nc(Nc3ccc4nn(C)cc4c3)ncc2F)cc1` [Compound R935298] was 2.32 µM; that for `CNC(=O)Cn1ncc2cc(Nc3ncc(F)c(Nc4ccc(OC(C)C)cc4)n3)ccc21` [Compound R935239] was 1.73 µM; that for `CNC(=O)COc1ccc(Nc2ncc(F)c(Nc3ccc4c(c3)OCCO4)n2)cc1` [Compound R909240] was 2.85 µM. `CCOC(=O)C(C)(C)Oc1cccc(Nc2ncc(F)c(Nc3ccc4cc[nH]c4c3)n2)c1` [Compound R926909] registered an IC50 of 4.65 µM. `CNC(=O)COc1cccc(Nc2ncc(F)c(Nc3cc(OC)cc(C(F)(F)F)c3)n2)c1` [Compound R926833] had an IC50 of 11.8 µM. Still for that read-out and setting: the value for `NC(=O)COc1ccc(Nc2nc(Nc3ccc4c(c3)OCCO4)ncc2F)cc1` [Compound R945171] was 3.19 µM; that for `CCOC(=O)c1cnc(Nc2cccc(OCC(=O)NC)c2)nc1Nc1ccc2c(c1)OCCO2` [Compound R926800] was above 10 µM; that for `CCOC(=O)COc1ccc(Nc2ncc(-c3nn[nH]n3)c(Nc3ccc(OCC(=O)OCC)cc3)n2)cc1` [Compound R925810] was 21.3 µM. The same measure, in the same setting: under `Fc1cnc(Nc2cccc(C(F)(F)F)c2)nc1Nc1ccc2c(c1)OCCO2` [Compound R926805] stands above 10 µM; under `CNC(=O)COc1cccc(Nc2ncc(F)c(Nc3cccc(N(C)C)c3)n2)c1` [Compound R950264], 1.99 µM. Consider `COC(=O)c1cc2cc(Nc3nc(Nc4ccc(OCc5nc(-c6ccccc6)no5)cc4)ncc3F)ccc2o1` [Compound R935137], for which the concentration for half-maximal inhibition (IC50) is 24.1 µM.

Regarding `COc1ccc([C@@H](C)Nc2ncc(Br)c(N[C@H](C)c3ccc(OC)cc3)n2)cc1` [Compound R935016], the midpoint of inhibition, the IC50, lay at 5.36 µM. `CC(C)(C)c1cccc(Nc2nc(Nc3cccc(OCC(=O)NC(CO)CO)c3)ncc2F)c1` [Compound R940296]: half-maximal inhibition (IC50) required 1.23 µM. The same measure, in the same setting: under `O=C(CNc1cccc(Nc2ncc(F)c(Nc3cccc(NCCO)c3)n2)c1)N1CCOCC1` [Compound R950236] stands 9.69 µM; under `CC(C)Oc1ccc(Nc2nc(Nc3ccc4c(cnn4CCO)c3)ncc2F)cc1` [Compound R935255], 0.668 µM. Same read-out and setting: under `O=C1Nc2cc(Nc3nc(Cl)ncc3F)ccc2OC1(F)F` [Compound R940342] stands 5.12 µM; under `COC(=O)c1ccc(Cn2ncc3ccc(Nc4ncc(F)c(Nc5cccc(O)c5)n4)cc32)c(OC)c1` [Compound R935321], above 10 µM; under `COC(=O)COc1cccc(Nc2ncc(F)c(Nc3cc(C)c(OC)c(C)c3)n2)c1` [Compound R945153], 9.74 µM. On the same count and under the same terms, the value for `COC(=O)Cn1ncc2cc(Nc3ncc(F)c(Nc4cccc(O)c4)n3)ccc21` [Compound R935237] was above 10 µM; that for `CCOC(=O)COc1ccc(Nc2ncc(F)c(Nc3ccc4c(c3)OCCO4)n2)cc1` [Compound R925747] was above 10 µM; that for `COC(=O)COc1ccc(Nc2nc(Nc3ccc(OCC#N)cc3)ncc2F)cc1` [Compound R945062] was above 10 µM. The compound `CNC(=O)COc1cccc(Nc2ncc(F)c(Nc3cccc(C(C)=NO)c3)n2)c1` [Compound R950373] gave a 50% inhibitory concentration (IC50) of 3.61 µM. Still for that read-out and setting: under `CCOC(=O)c1cnc(Nc2ccc(OCC(=O)NCC3CC3)cc2)nc1Nc1cccc(O)c1` [Compound R925838] stands above 10 µM.

Compound `COC(=O)COc1ccc(Nc2ncc(F)c(Nc3ccc(OCC(N)=O)cc3)n2)cc1` [Compound R945052] yielded an IC50 above 10 µM. Still for that read-out and setting: under `Cn1cc2cc(Nc3ncc(F)c(Nc4cccc(O)c4)n3)ccc2n1` [Compound R935299] stands 0.824 µM. The same measure, in the same setting: the value for `CNC(=O)COc1cccc(Nc2ncc(F)c(Nc3ccc(OC)c(CN4CCOCC4)c3)n2)c1` [Compound R940314] was 7.03 µM; that for `CC(C)NC(=O)COc1cccc(Nc2ncc(F)c(Nc3ccc4c(c3)OCCO4)n2)c1` [Compound R926830] was 4.16 µM. Still for that read-out and setting: the value for `CCOC(=O)COc1ccc(Nc2ncc(Br)c(Nc3cccc(O)c3)n2)cc1` [Compound R926396] was 6.59 µM; that for `CCOC(=O)COc1ccc(Nc2ncc(F)c(Nc3ccc4c(c3)OCCO4)n2)cn1` [Compound R926740] was above 10 µM; that for `CNC(=O)COc1cccc(Nc2ncc(F)c(Nc3cccc(NCCO)c3)n2)c1` [Compound R950265] was 0.982 µM.

Compound `Oc1cccc(Nc2ccnc(Nc3ccc(OCc4nn[nH]n4)cc3)n2)c1` [Compound R920819] displayed an IC50 above 10 µM. Still for that read-out and setting: the value for `C=CCNC(=O)Oc1cccc(Nc2nc(Nc3cccc(OCC(=O)NC)c3)ncc2F)c1` [Compound R926917] was 4.74 µM. The compound `CNC(=O)C(C)(C)Oc1cccc(Nc2ncc(F)c(Nc3cccc(O)c3)n2)c1` [Compound R926913] yielded an IC50 of 5.65 µM. Same read-out and setting: the value for `CSc1nc(Nc2ccc3c(c2)OCCO3)nc(Nc2ccc3c(c2)OCCO3)c1Cl` [Compound R926475] was above 10 µM.

`C[C@H](Nc1nc(Nc2ccc3c(c2)OCCO3)ncc1F)[C@H](O)c1ccccc1` [Compound R925766] returned an IC50 above 10 µM.

Compound `CCOC(=O)COc1cccc(Nc2ncc(F)c(Nc3cc(Cl)c(O)c(Cl)c3)n2)c1` [Compound R950185] yielded a concentration for half-maximal inhibition (IC50) above 10 µM. The same measure, in the same setting: under `COC(=O)COc1cccc(Nc2ncc(F)c(Nc3cc(C)c(O)c(Cl)c3)n2)c1` [Compound R945148] stands 16.2 µM; under `CC(=O)Nc1cccc(N(C(C)=O)c2ncc(F)c(N(C(C)=O)c3cccc(NC(C)=O)c3)n2)c1` [Compound R950244], above 10 µM; under `Oc1cccc(Nc2ncc(F)c(Nc3ccc4[nH]ncc4c3)n2)c1` [Compound R935268], 2.91 µM.

As to `COc1cc(C(=O)NS(=O)(=O)c2ccccc2C)ccc1Cn1ncc2cc(Nc3ncc(F)c(Nc4ccc5c(c4)OCCO5)n3)ccc21` [Compound R935339], the half-maximal inhibitory concentration (IC50) was above 10 µM. On the same count and under the same terms, under `CNC(=O)COc1cccc(Nc2ncc(F)c(Nc3ccc4c(c3)N(C)CCO4)n2)c1` [Compound R909259] stands above 10 µM; under `CCOC(=O)COc1ccc(Nc2nc(Nc3ccc(OCC(=O)OCC)cc3)c(NC(=O)NC(=O)OCC)c(C(=O)OCC)n2)cc1` [Compound R926586], above 10 µM.

Still in this assay, the particulars now being: Homo sapiens.
Regarding `Cc1ccc([N+](=O)[O-])cc1Nc1ncc(F)c(Nc2cc([N+](=O)[O-])ccc2C)n1` [Compound R950146], the 50% inhibitory concentration (IC50) was above 10 µM. On the same count and under the same terms, the value for `O=[N+]([O-])c1cccc(Nc2ncc(F)c(Nc3cccc([N+](=O)[O-])c3)n2)c1` [Compound R950160] was above 10 µM.

Still in this assay, the particulars now being: Homo sapiens, Jurkat.
Regarding `Fc1cnc(Nc2ccc3c(c2)OC(F)(F)O3)nc1Nc1ccc2c(c1)OCCO2` [Compound R926386], the IC50 was above 10 µM.

On to `Fc1cnc(Nc2cccc(-c3nnn[nH]3)c2)nc1Nc1ccc2c(c1)OCCO2` [Compound R926843], for which the half-inhibitory concentration (IC50) was above 10 µM.

Compound `Clc1ccc(-c2cnc(Nc3ccc4c(c3)OCCO4)nc2Nc2ccc3c(c2)OCCO3)cc1` [Compound R925786] displayed a 50% inhibitory concentration (IC50) above 10 µM.

Compound `CCOC(=O)c1cccc(Nc2ncc(F)c(Nc3ccc4c(c3)OCCO4)n2)c1` [Compound R925745] yielded a half-maximal inhibitory concentration (IC50) above 10 µM. Still for that read-out and setting: the value for `COc1cc(Nc2ncc(F)c(Nc3cc(OC)c(OC)c(OC)c3)n2)cc(OC)c1OC` [Compound R926688] was 3.78 µM. `Fc1cnc(NCc2ccc3c(c2)CCO3)nc1Nc1ccc2c(c1)OCCO2` [Compound R950205]: the 50% inhibitory concentration (IC50) was 24.5 µM. On the same count and under the same terms, the value for `CC(Nc1nc(Nc2cccc(O)c2)ncc1F)c1ccc(F)cc1` (racemic) [Compound R935021] was above 10 µM. Still for that read-out and setting: the value for `N#Cc1cnc(Nc2cccc(O)c2)nc1Nc1cccc(O)c1` [Compound R925774] was 7.5 µM; that for `COC(=O)c1ccc(Nc2ncc(F)c(Nc3ccc(C(=O)OC)c(OC)c3)n2)cc1OC` [Compound R945065] was 14.4 µM. `CCOC(=O)c1cc2cc(Nc3ncc(F)c(Nc4ccc5c(c4)OCCO5)n3)ccc2[nH]1` [Compound R926476] had a 50% inhibitory concentration (IC50) of 3.9 µM. `Fc1cnc(Nc2ccc(Cl)c(C(F)(F)F)c2)nc1Nc1ccc(Cl)c(C(F)(F)F)c1` [Compound R926039] displayed a half-maximal inhibitory concentration (IC50) above 10 µM. Still for that read-out and setting: under `Oc1cccc(Nc2nc(NCC3COc4ccccc4O3)ncc2F)c1` (stereo not shown) [Compound R950214] stands above 10 µM. The same measure, in the same setting: the value for `CC(=O)Nc1cccc(OCCCNc2ncc(F)c(Nc3ccc4c(c3)OCCO4)n2)c1` [Compound R926787] was above 10 µM. Compound `CC(=O)Nc1ccc(Nc2ncc(F)c(Nc3ccc(NC(C)=O)cc3)n2)cc1` [Compound R940222] gave an IC50 of 9.47 µM. The same measure, in the same setting: under `O=[N+]([O-])c1cnc(Nc2ccc3c(c2)OCCO3)nc1Nc1ccc2c(c1)OCCO2` [Compound R940095] stands above 10 µM; under `Cc1cc(Nc2ncc(F)c(Nc3cc(C)c(O)cc3C)n2)c(C)cc1O` [Compound R926623], 10 µM. The same measure, in the same setting: the value for `Oc1cccc(Nc2ncc(F)c(Nc3ccc(Cl)nc3)n2)c1` [Compound R927018] was 17.7 µM; that for `Fc1ccc(Nc2ncc(F)c(Nc3ccc(F)cc3)n2)cc1` [Compound R926224] was above 10 µM. The same measure, in the same setting: the value for `Cc1cc(CNc2ncc(F)c(Nc3cccc(O)c3)n2)c(C)o1` [Compound R945162] was above 10 µM; that for `CC(C)(C)c1ccc(Nc2ncc(F)c(Nc3ccc(C(C)(C)C)cc3)n2)cc1` [Compound R926222] was above 10 µM. `COC(=O)c1cc2cc(Nc3nc(Nc4ccc5c(c4)OCCO5)ncc3F)ccc2o1` [Compound R926485] yielded a half-inhibitory concentration (IC50) above 10 µM. Still for that read-out and setting: the value for `O=c1ccc2cc(Nc3ncc(F)c(Nc4ccc5oc(=O)ccc5c4)n3)ccc2o1` [Compound R926617] was above 10 µM; that for `COc1ccc(Nc2ccnc(Nc3ccc(OC)c(-c4ccccc4)c3)n2)cc1-c1ccccc1` [Compound R925806] was above 10 µM.

`OCCOc1cccc(Nc2nc(Nc3ccc4c(c3)OCCO4)ncc2F)c1` [Compound R935176] showed an IC50 of 1.98 µM. On the same count and under the same terms, under `Fc1cnc(NCc2ccco2)nc1NCc1ccco1` [Compound R925769] stands above 10 µM.
